In ChEMBL document CHEMBL5579818, “Identification of 3-(9H-carbazol-9-yl)-2-(1,3-dioxoisoindolin-2-yl)propanoic acids as promising DNMT1 inhibitors” (Eur J Med Chem, 2024):
Values belong to the compound of their own block, whether it stands above or below them. Activity calls are given as the source filed them. The rule behind the calls is not given here.

How the values were obtained:
[1] = target: T1, DNA (cytosine-5)-methyltransferase 1 (Homo sapiens, UniProt P26358); test: Inhibition of DNMT1 (unknown origin) using semi-methylated DNA substrate preincubated for 15 mins followed by substrate and [3H-SAM] addition and measured after 60 mins by microbeta scintillation counting assay
[2] = system: A2780; test: Antiproliferative activity against human A2780 cells incubated for 48 hrs by MTT assay; type: functional, cell-based; conditions: A2780, 48 h
[3] = system: K562; test: Antiproliferative activity against human K562 cells incubated for 48 hrs by MTT assay; type: functional, cell-based; conditions: K562, 48 h
[4] = system: HeLa; test: Antiproliferative activity against human HeLa cells incubated for 48 hrs by MTT assay; type: functional, cell-based
[5] = system: SiHa; test: Antiproliferative activity against human SiHa cells incubated for 48 hrs by MTT assay; type: functional, cell-based
[6] = target: T1, DNA (cytosine-5)-methyltransferase 1; test: Binding affinity to human DNMT1 expressed in Escherichia coli assessed as equilibrium dissociation constant by SPR analysis
[7] = target: T1, DNA (cytosine-5)-methyltransferase 1; test: Inhibition of DNMT1 (unknown origin) at 250 uM using semi-methylated DNA substrate preincubated for 15 mins followed by substrate and [3H-SAM] addition and measured after 60 mins by microbeta scintillation counting assay relative to control; conditions: time 75.0 min
[8] = target: T1, DNA (cytosine-5)-methyltransferase 1; test: Binding affinity to human DNMT1 expressed in Escherichia coli assessed as response unit at 10 uM by SPR analysis
[9] = system: HeLa; test: Antiproliferative activity against human HeLa cells at 100 uM incubated for 48 hrs by MTT assay; type: functional
[10] = system: K562; test: Antiproliferative activity against human K562 cells at 100 uM incubated for 48 hrs by MTT assay; type: functional
[11] = system: A2780; test: Antiproliferative activity against human A2780 cells at 100 uM incubated for 48 hrs by MTT assay; type: functional
[12] = target: T1, DNA (cytosine-5)-methyltransferase 1; test: Binding affinity to human DNMT1 expressed in Escherichia coli assessed as binding constant by SPR analysis
[13] = target: T1, DNA (cytosine-5)-methyltransferase 1; test: Inhibition of human DNMT1 at 500 uM relative to control
[14] = system: SiHa; test: Antiproliferative activity against human SiHa cells at 100 uM incubated for 48 hrs by MTT assay; type: functional
[15] = system: K562; test: Induction of apoptosis in human K562 cells assessed as late apoptotic cells at 10 uM incubated for 48 hrs by Annexin-V/PI staining based flow cytometry assay (reference value: 3.73%); type: functional
[16] = system: K562; test: Upregulation of TRAIL-R2/Dr5 expression in human K562 cells; type: functional, cell-based
[17] = system: K562; test: Induction of apoptosis in human K562 cells assessed as necrotic cells at 10 uM incubated for 48 hrs by Annexin-V/PI staining based flow cytometry assay (reference value: 0.34%); type: functional
[18] = system: K562; test: Induction of cell cycle arrest in human K562 cells assessed as S phase cells at 10 uM incubated for 48 hrs by PI staining based flow cytometry assay (reference value: 24.10 to 26.83%); type: functional
[19] = system: K562; test: Induction of cell cycle arrest in human K562 cells assessed as S phase cells at 20 uM incubated for 48 hrs by PI staining based flow cytometry assay (reference value: 24.10 to 26.83%); type: functional
[20] = system: K562; test: Induction of cell cycle arrest in human K562 cells assessed as G2/M phase cells at 10 uM incubated for 48 hrs by PI staining based flow cytometry assay (reference value: 37.35 to 45.32%); type: functional
[21] = system: K562; test: Induction of apoptosis in human K562 cells assessed as viable cells at 40 uM incubated for 48 hrs by Annexin-V/PI staining based flow cytometry assay (reference value: 92.12%); type: functional; conditions: read-out: Activity
[22] = system: K562; test: Induction of apoptosis in human K562 cells assessed as early apoptotic cells at 20 uM incubated for 48 hrs by Annexin-V/PI staining based flow cytometry assay (reference value: 3.18%); type: functional
[23] = system: K562; test: Upregulation of TNFR-1 expression in human K562 cells; type: functional, cell-based
[24] = system: K562; test: Induction of apoptosis in human K562 cells assessed as early apoptotic cells at 10 uM incubated for 48 hrs by Annexin-V/PI staining based flow cytometry assay (reference value: 3.18%); type: functional
[25] = system: K562; test: Induction of apoptosis in human K562 cells assessed as viable cells at 20 uM incubated for 48 hrs by Annexin-V/PI staining based flow cytometry assay (reference value: 92.12%); type: functional; conditions: read-out: Activity
[26] = system: K562; test: Induction of cell cycle arrest in human K562 cells assessed as G0-G1 phase cells at 10 uM incubated for 48 hrs by PI staining based flow cytometry assay (reference value: 33.58 to 35.82%); type: functional
[27] = system: K562; test: Induction of apoptosis in human K562 cells assessed as late apoptotic cells at 40 uM incubated for 48 hrs by Annexin-V/PI staining based flow cytometry assay (reference value: 3.73%); type: functional
[28] = system: K562; test: Induction of apoptosis in human K562 cells assessed as early apoptotic cells at 40 uM incubated for 48 hrs by Annexin-V/PI staining based flow cytometry assay (reference value: 3.18%); type: functional
[29] = system: K562; test: Induction of cell cycle arrest in human K562 cells assessed as G2/M phase cells at 20 uM incubated for 48 hrs by PI staining based flow cytometry assay (reference value: 37.35 to 45.32%); type: functional
[30] = system: K562; test: Induction of cell cycle arrest in human K562 cells assessed as G0-G1 phase cells at 20 uM incubated for 48 hrs by PI staining based flow cytometry assay (reference value: 33.58 to 35.82%); type: functional
[31] = system: K562; test: Induction of apoptosis in human K562 cells assessed as necrotic cells at 20 uM incubated for 48 hrs by Annexin-V/PI staining based flow cytometry assay (reference value: 0.34%); type: functional
[32] = system: K562; test: Induction of apoptosis in human K562 cells assessed as necrotic cells at 40 uM incubated for 48 hrs by Annexin-V/PI staining based flow cytometry assay (reference value: 0.34%); type: functional
[33] = system: K562; test: Induction of cell cycle arrest in human K562 cells assessed as S phase cells at 40 uM incubated for 48 hrs by PI staining based flow cytometry assay (reference value: 24.10 to 26.83%); type: functional
[34] = system: K562; test: Induction of apoptosis in human K562 cells assessed as late apoptotic cells at 20 uM incubated for 48 hrs by Annexin-V/PI staining based flow cytometry assay (reference value: 3.73%); type: functional
[35] = system: K562; test: Upregulation of CDKN1A/P21 expression in human K562 cells; type: functional, cell-based
[36] = system: K562; test: Induction of cell cycle arrest in human K562 cells assessed as G0-G1 phase cells at 40 uM incubated for 48 hrs by PI staining based flow cytometry assay (reference value: 33.58 to 35.82%); type: functional
[37] = system: K562; test: Induction of cell cycle arrest in human K562 cells assessed as G2/M phase cells at 40 uM incubated for 48 hrs by PI staining based flow cytometry assay (reference value: 37.35 to 45.32%); type: functional
[38] = system: K562; test: Induction of apoptosis in human K562 cells assessed as viable cells at 10 uM incubated for 48 hrs by Annexin-V/PI staining based flow cytometry assay (reference value: 92.12%); type: functional; conditions: read-out: Activity

T1 sequence (P26358 whole entry): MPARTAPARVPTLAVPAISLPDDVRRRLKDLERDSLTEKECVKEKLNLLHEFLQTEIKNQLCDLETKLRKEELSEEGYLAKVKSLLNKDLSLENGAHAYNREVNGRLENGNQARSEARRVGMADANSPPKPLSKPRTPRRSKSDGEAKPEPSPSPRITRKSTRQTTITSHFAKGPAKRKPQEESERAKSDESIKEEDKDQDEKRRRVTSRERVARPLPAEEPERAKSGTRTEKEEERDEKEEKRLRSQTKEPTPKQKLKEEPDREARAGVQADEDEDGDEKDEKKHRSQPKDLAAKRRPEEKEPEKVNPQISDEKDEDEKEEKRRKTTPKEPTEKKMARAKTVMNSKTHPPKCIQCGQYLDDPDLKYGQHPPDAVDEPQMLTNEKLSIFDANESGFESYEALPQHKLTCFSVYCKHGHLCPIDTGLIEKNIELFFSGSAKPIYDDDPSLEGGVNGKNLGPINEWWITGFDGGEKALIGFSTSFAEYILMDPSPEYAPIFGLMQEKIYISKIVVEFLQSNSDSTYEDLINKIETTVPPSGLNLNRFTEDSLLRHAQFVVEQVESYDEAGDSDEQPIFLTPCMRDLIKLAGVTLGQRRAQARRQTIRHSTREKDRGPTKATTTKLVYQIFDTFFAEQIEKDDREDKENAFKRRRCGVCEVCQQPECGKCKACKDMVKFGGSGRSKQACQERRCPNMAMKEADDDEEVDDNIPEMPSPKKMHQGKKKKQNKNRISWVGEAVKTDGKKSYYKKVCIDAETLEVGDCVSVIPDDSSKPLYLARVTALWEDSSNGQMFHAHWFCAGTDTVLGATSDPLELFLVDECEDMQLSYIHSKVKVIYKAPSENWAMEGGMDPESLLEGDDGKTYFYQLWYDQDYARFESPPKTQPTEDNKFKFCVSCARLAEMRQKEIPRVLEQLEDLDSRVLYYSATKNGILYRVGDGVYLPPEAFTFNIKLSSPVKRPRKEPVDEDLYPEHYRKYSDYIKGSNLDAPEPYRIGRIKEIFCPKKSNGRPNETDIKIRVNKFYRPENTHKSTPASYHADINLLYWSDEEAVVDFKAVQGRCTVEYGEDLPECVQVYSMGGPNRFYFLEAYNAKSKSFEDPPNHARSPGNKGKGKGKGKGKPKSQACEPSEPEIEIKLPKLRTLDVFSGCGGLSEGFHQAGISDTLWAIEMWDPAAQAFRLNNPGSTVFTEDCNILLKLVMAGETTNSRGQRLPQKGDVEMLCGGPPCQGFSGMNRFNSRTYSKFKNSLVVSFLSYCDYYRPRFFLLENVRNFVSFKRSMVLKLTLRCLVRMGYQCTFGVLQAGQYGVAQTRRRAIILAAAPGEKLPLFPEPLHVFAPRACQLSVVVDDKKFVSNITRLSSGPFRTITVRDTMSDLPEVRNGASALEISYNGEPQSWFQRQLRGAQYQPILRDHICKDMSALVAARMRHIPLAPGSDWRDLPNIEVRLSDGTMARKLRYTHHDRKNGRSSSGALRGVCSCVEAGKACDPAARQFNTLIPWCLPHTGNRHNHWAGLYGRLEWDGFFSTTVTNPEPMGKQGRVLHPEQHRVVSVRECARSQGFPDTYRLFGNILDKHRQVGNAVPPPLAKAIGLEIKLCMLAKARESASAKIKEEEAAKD

Compound: CC(C)(C)c1ccc2c(c1)c1cc(C(C)(C)C)ccc1n2C[C@H](C(=O)O)N1C(=O)c2ccccc2C1=O
IC50 [1]: 17.3 µM
IC50 [2]: 34.6 µM
IC50 [3]: 17 µM
IC50 [4]: 59.9 µM
IC50 [5]: 54.9 µM
Kd [6]: 0.666 µM

Compound: O=C(O)C(Cn1c2ccc(Cl)cc2c2cc(Cl)cc(Cl)c21)N1C(=O)c2ccccc2C1=O (racemic)
IC50 [2]: 72.8 µM
inhibition [7]: > 75%
Activity [8]: 65.5 RU
IC50 [3]: 45.8 µM
Activity [9]: 52%
IC50 [4]: 97.6 µM
IC50 [5]: 78 µM
Kd [6]: 0.16 µM
Activity [10]: 91%
Activity [11]: 59%

Compound: O=C(O)C(Cn1c2ccc(I)cc2c2cc(I)ccc21)N1C(=O)c2ccccc2C1=O (racemic) [listing 1 of 2 here]
Ka [12]: 239000 M⁻¹ s⁻¹
inhibition [7]: > 75%
Activity [8]: 57.9 RU

Compound: CC(C)(C)c1ccc2c(c1)c1cc(C(C)(C)C)ccc1n2C[C@@H](C(=O)O)N1C(=O)c2ccccc2C1=O
Activity [15]: 2.07%
Activity [16]: Active
IC50 [1]: 8.15 µM
Activity [17]: 0.37%
Activity [18]: 26.12%
Activity [19]: 21.5%
Activity [20]: 38.67%
IC50 [2]: 32.9 µM
viability at 40 µM [21]: 3.07%
Activity [22]: 2.78%
Activity [23]: Active
Activity [24]: 1.39%
viability at 20 µM [25]: 90.2%
Activity [26]: 34.61%
Activity [27]: 94.09%
IC50 [3]: 15.8 µM
Activity [28]: 1.36%
IC50 [4]: 66.9 µM
Activity [29]: 23.67%
IC50 [5]: 25.6 µM
Activity [30]: 54.77%
Activity [31]: 0.56%
Activity [32]: 1.47%
Activity [33]: 22.3%
Kd [6]: 0.679 µM
Activity [34]: 6.5%
Activity [35]: Active
Activity [36]: 61.14%
Activity [37]: 16.56%
viability at 10 µM [38]: 86.2%

Compound: O=C(O)C(Cn1c2ccc(I)cc2c2cc(I)ccc21)N1C(=O)c2ccccc2C1=O (racemic) [listing 2 of 2 here]
Kd [6]: 0.145 µM

More lines, main results first:

inhibition [7]: < 50%
Activity [8]: 25.1 RU
inhibition [13]: < 10%
Compound: O=C(O)C(Cn1c2ccccc2c2ccccc21)N1C(=O)c2ccccc2C1=O (racemic)
Activity [9]: <5%
Activity [10]: <5%
Activity [11]: <5%
Activity [14]: <5%

IC50 [1]: 38.2 µM
Compound: O=C(O)C(Cn1c2ccc(Br)cc2c2cc(Br)ccc21)N1C(=O)c2ccccc2C1=O (stereo in doubt; 7n-2)

IC50 [1]: 43 µM
Compound: O=C(O)C(Cn1c2ccc(I)cc2c2cc(I)ccc21)N1C(=O)c2ccccc2C1=O (stereo in doubt; 7o-2)

inhibition [7]: > 75%
Activity [8]: Active
Compound: Cc1ccc2c(c1)c1cc(C)ccc1n2CC(C(=O)O)N1C(=O)c2ccccc2C1=O (racemic)

inhibition [7]: < 50%
Compound: O=C(O)C(Cn1c2ccccc2c2cc(Br)ccc21)N1C(=O)c2ccccc2C1=O (racemic)
Activity [9]: <5%
Activity [10]: <5%
Activity [11]: <5%
Activity [14]: <5%
